Experimental data published in the supplement of paper PMC9938120.

Tests used:
Experiment in all cases: drug sensitivity score (DSS3, normalised partial AUC of % inhibition dose-response) (DSS (score)); higher = more sensitive (stronger inhibition of viability); extreme values may be limits of the assay
FMOC14 = patient-derived high-grade serous ovarian cancer cells; conditions: 72 h; library: FO5A; assay format: 2D, 384-well, CellTiter-Glo
Method in brief: (§1)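 Early-passage (under 10) patient-derived ovarian cancer cells were dispensed onto 384-well flat clear-bottom plates pre-plated with compounds at five concentrations spanning a 10,000-fold range, then incubated 72 h at 37 °C, 5% CO2. Viability was read with CellTiter-Glo, and the data were processed in Breeze. The drug sensitivity score is a partial area under the percent-inhibition dose-response curve divided by the log of the upper asymptote, with higher values meaning greater sensitivity.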

FMOC24 = patient-derived high-grade serous ovarian cancer cells; conditions: 72 h; library: FO5A; assay format: 2D, 384-well, CellTiter-Glo
Method in brief: as §1

FMOC25_2 = patient-derived low-grade serous ovarian cancer cells; conditions: 72 h; library: FO5A; assay format: 2D, 384-well, CellTiter-Glo
Method in brief: as §1

FMOC02_3 = patient-derived low-grade serous ovarian cancer cells; conditions: 72 h; library: FO5A; assay format: 2D, 384-well, CellTiter-Glo
Method in brief: as §1

FMOC27 = patient-derived low-grade serous ovarian cancer cells; conditions: 72 h; library: FO5A; assay format: 2D, 384-well, CellTiter-Glo
Method in brief: as §1

FMOC28 = patient-derived low-grade serous ovarian cancer cells; conditions: 72 h; library: FO5A; assay format: 2D, 384-well, CellTiter-Glo
Method in brief: as §1

FMOC09 = patient-derived high-grade serous ovarian cancer cells; conditions: 72 h; library: FO5A; assay format: 2D, 384-well, CellTiter-Glo
Method in brief: as §1

FMOC06 = patient-derived mucinous ovarian cancer cells; conditions: 72 h; library: FO5A; assay format: 2D, 384-well, CellTiter-Glo
Method in brief: as §1

FMOC11 = patient-derived high-grade serous ovarian cancer cells; conditions: 72 h; library: FO5A; assay format: 2D, 384-well, CellTiter-Glo
Method in brief: as §1

FMOC02_1 = patient-derived low-grade serous ovarian cancer cells; conditions: 72 h; library: FO5A; assay format: 2D, 384-well, CellTiter-Glo
Method in brief: as §1

FMOC03 = patient-derived mucinous ovarian cancer cells; conditions: 72 h; library: FO5A; assay format: 2D, 384-well, CellTiter-Glo
Method in brief: as §1

FMOC04 = patient-derived high-grade serous ovarian cancer cells; conditions: 72 h; library: FO5A; assay format: 2D, 384-well, CellTiter-Glo
Method in brief: as §1

FMOC25_1 = patient-derived low-grade serous ovarian cancer cells; conditions: 72 h; library: FO4B; assay format: 2D, 384-well, CellTiter-Glo
Method in brief: as §1

FMOC02_2 = patient-derived low-grade serous ovarian cancer cells; conditions: 72 h; library: FO5A; assay format: 2D, 384-well, CellTiter-Glo
Method in brief: as §1

FMOC17 = patient-derived low-grade serous ovarian cancer cells; conditions: 72 h; library: FO5A; assay format: 2D, 384-well, CellTiter-Glo
Method in brief: as §1

FMOC22 = patient-derived mucinous ovarian cancer cells; conditions: 72 h; library: FO5A; assay format: 2D, 384-well, CellTiter-Glo
Method in brief: as §1

SMILES	drug sensitivity score (FMOC14)	drug sensitivity score (FMOC24)	drug sensitivity score (FMOC25_2)	drug sensitivity score (FMOC02_3)	drug sensitivity score (FMOC27)	drug sensitivity score (FMOC28)	drug sensitivity score (FMOC09)	drug sensitivity score (FMOC06)	drug sensitivity score (FMOC11)	drug sensitivity score (FMOC02_1)	drug sensitivity score (FMOC03)	drug sensitivity score (FMOC04)	drug sensitivity score (FMOC25_1)	drug sensitivity score (FMOC02_2)	drug sensitivity score (FMOC17)	drug sensitivity score (FMOC22)
Cc1cccc(-c2nn3c(c2-c2ccnc4ccc(C(N)=O)cc24)CCC3)n1 [Galunisertib]	0	0.35	0	0	0	0	0	0	0	0	0	0	0	0	0	0
C[C@@H]1C=C2C(=O)O[C@@H]3CC[C@H](C1)[C@]23O [Galiellalactone]	5.5	1.65	4.6	2.3	3.8	6.7	6.7	2.5	4	5.9	3.9	5.9	0	5.9	5.8	4.2
Cn1cc(C2=C(c3cn(C4CCN(Cc5ccccn5)CC4)c4ccccc34)C(=O)NC2=O)c2ccccc21 [Enzastaurin]	5	3.95	0	5.8	0.3	0	1.5	0	0	4.8	0.5	0	0	4.4	5.1	0.3
CC[C@H](C)C(=O)O[C@H]1C[C@@H](C)C=C2C=C[C@H](C)[C@H](CC[C@@H]3C[C@@H](O)CC(=O)O3)[C@H]21 [Lovastatin]	0	2.5	1	3.9	0	0.1	3.3	0.9	1.3	0	0.5	0	0	0.3	1.1	2.1
CCn1c(-c2nonc2N)nc2cnc(Oc3cccc(NC(=O)c4ccc(OCCN5CCOCC5)cc4)c3)cc21	2.2	2.3	3.8	6.3	2.9	0.4	2.3	1.3	3.7	4.8	0.4	0.6	0	1.6	2	1.7
CCNc1nc(Nc2cc(F)c(C(=O)N3CCOCC3)cc2OC)ncc1C(F)(F)F [GNE-7915]	0	0	0	1	0	2	0	0	0	0	0	0	0	0	0	0
C[C@H]1C[C@@H]2[C@H]([C@@H](O)C[C@@]3(C)[C@H]2CC[C@]3(O)C(=O)CO)[C@@]2(C)C=CC(=O)C=C12 [Methylprednisolone]	0	0	0	0	0	0	0.1	0.1	0.6	0	0	0	0	0	0	0
C[C@@H]1C[C@H]2[C@@H]3CCC4=CC(=O)C=C[C@]4(C)[C@@]3(F)[C@@H](O)C[C@]2(C)[C@@]1(O)C(=O)CO [Dexamethasone]	0	0	0	0	0	0	0	0	0	0	0	0	0	0	1.3	0
CC[C@H](CO)Nc1nc(NCc2ccccc2)c2ncn(C(C)C)c2n1 [Seliciclib]	1.5	1.35	2.1	3.5	0	1.2	0	0.1	0	4.1	1.5	0.1	0.9	4.3	1.4	0
COc1cc2c(Oc3ccc(NC(=O)C4(C(=O)Nc5ccc(F)cc5)CC4)cc3F)ccnc2cc1OCCCN1CCOCC1 [Foretinib]	0.6	1.35	2.4	3.2	2.2	0	1.1	3.1	0.8	2.6	0	1.1	0.6	1.9	1.7	0.5
Cc1ccc(C(=O)Nc2ccc(Oc3cc4cnn(C)c4cc3-c3cn[nH]c3)c(F)c2)c(=O)n1-c1ccc(F)cc1 [Merestinib]	0	1.15	4	4.4	0	1.4	1.6	1.1	0	1.1	1.3	0	2.7	1.9	0.3	0
O=C(O)CC[C@H]1CC[C@@](c2cc(F)ccc2F)(S(=O)(=O)c2ccc(Cl)cc2)CC1 [MK-0752]	0	0	0	0.7	0	0.2	0	0.3	0	0	0	0	0	0	0	0
CC(=O)O[C@]1(C(C)=O)CC[C@H]2[C@@H]3C=C(C)C4=CC(=O)CC[C@]4(C)[C@H]3CC[C@@]21C [Megestrol acetate]	0	0	0	0	4.6	1	0	0.4	0	0.3	0.2	0	0	0	0	0
CCc1cc2c(cc1N1CCC(N3CCOCC3)CC1)C(C)(C)c1[nH]c3cc(C#N)ccc3c1C2=O [Alectinib]	0	0.3	0	0.6	1.2	1.7	0	0.2	0.7	1.7	0.3	0	0.1	1.5	0.8	0
COc1cc2nccc(Oc3ccc(NC(=O)Nc4cc(C)on4)c(Cl)c3)c2cc1OC [Tivozanib]	0.5	0.9	3.2	3.3	1.5	0.5	0.4	2.3	1.9	5	2.2	0.3	1.9	3	2.8	1.2
COc1cccc2c1c(O)c(C(=O)N(C)c1ccc(C(F)(F)F)cc1)c(=O)n2C [Tasquinimod]	0	2.3	2.5	1	0.4	0	0	0	0	0	0	0	3.9	0	0	0
Cc1cc2c(F)c(Oc3ncnn4cc(OC[C@@H](C)O)c(C)c34)ccc2[nH]1 [Brivanib]	0	0	0	0	0	0	0	0	0	0	0	0	0	0	0	0
CCN(c1cc(-c2ccc(CN3CCOCC3)cc2)cc(C(=O)NCc2c(C)cc(C)[nH]c2=O)c1C)C1CCOCC1 [Tazemetostat]	0	0	0	0.1	0	0	0	0.5	0	0	0	0	0	0	0	0
N#Cc1ccc(C(c2ccc(C#N)cc2)n2cncn2)cc1 [Letrozole]	0	0	0	0	0	0	0	0	0	0	0	0	0	0	0	0
NS(=O)(=O)NCCNc1nonc1/C(=N/O)Nc1ccc(F)c(Br)c1 [Epacadostat]	0	0.1	0	0.4	0	0.9	0	0.1	0	0	0	0	0	0	0	0
CN1CCN(c2nc(C3=C(c4c[nH]c5ccccc45)C(=O)NC3=O)c3ccccc3n2)CC1 [Sotrastaurin]	0	1.85	0	9.9	0	0	0	0	2.1	3	0	0	0	4.3	3.9	0
CCC/C=C/C=C/C(=O)O[C@H]1/C(=C/C(=O)OC)C[C@H]2C[C@H]([C@@H](C)O)OC(=O)C[C@H](O)C[C@@H]3C[C@H](OC(C)=O)C(C)(C)[C@](O)(C[C@@H]4C/C(=C/C(=O)OC)C[C@H](/C=C/C(C)(C)[C@]1(O)O2)O4)O3 [Bryostatin 1]	0	3.45	7.1	4.1	0.2	0.7	0.6	6.8	2.4	6.7	0	0.7	6.6	1.5	0	2.6
